IC50 data for 19 molecules are collected here from patent US20250163047A1, “HETEROCYCLIC COMPOUNDS, COMPOSITIONS THEREOF, AND METHODS OF TREATMENT THEREWITH” (BeiGene, Ltd., priority 2022, published 2025).

One experiment has as its target T1, Cbl-b (aa36-427) (Homo sapiens, UniProt Q13191).
T1 construct: Cbl-b (aa36-427, in-house); made in house
The experiment in a line: Co-expressed Cbl-b with BirA biochemical assay (CBLB/E2-Ub binding, HTRF). Conditions: 0.6 nM Cbl-b co-expressed with BirA, HTRF; read-out: co-express CBLB/E2-Ub-binding assay IC50. The text has this: (§1) The assay in the absence of a Cbl-b/Cbl inhibitor, where phosphorylation of Cbl-b/Cbl by the Src kinase allows UbcH5B-Ub to bind to Cbl-b/Cbl and brings the Bodipy-Fluorescein tagged ubiquitin in proximity to the streptavidin-terbium bound to the N-terminal biotinylated Avi-tagged Cbl-b/Cbl. […] The lack of a FRET signal indicates Cbl-b/Cbl is inhibited by the Cbl-b/Cbl inhibitor.

The target of the next experiment is T2, Cbl (aa49-434) (Homo sapiens, UniProt P22681).
T2 construct: Cbl (aa49-434, in-house); made in house
T2 sequence (P22681 49-434): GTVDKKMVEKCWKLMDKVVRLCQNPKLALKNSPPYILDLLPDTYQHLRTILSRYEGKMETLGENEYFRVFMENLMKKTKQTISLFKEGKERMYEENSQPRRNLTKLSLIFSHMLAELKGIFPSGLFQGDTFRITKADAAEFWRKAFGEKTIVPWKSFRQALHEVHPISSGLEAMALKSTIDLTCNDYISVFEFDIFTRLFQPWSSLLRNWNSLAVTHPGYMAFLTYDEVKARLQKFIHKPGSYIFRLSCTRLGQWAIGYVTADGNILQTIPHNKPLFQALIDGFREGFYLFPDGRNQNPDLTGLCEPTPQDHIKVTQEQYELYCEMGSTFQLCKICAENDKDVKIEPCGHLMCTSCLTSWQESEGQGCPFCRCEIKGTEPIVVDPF
In words: Co-expressed Cbl with BirA biochemical assay (CBL/E2-Ub binding, HTRF). The note with it: 0.6 nM Cbl co-expressed with BirA, read-out: co-express CBL/E2-Ub-binding assay IC50.
Source text: as §1
In general terms: TR-FRET usually uses a lanthanide donor and a delayed reading to cut background.

T1 sequence (Q13191 36-427): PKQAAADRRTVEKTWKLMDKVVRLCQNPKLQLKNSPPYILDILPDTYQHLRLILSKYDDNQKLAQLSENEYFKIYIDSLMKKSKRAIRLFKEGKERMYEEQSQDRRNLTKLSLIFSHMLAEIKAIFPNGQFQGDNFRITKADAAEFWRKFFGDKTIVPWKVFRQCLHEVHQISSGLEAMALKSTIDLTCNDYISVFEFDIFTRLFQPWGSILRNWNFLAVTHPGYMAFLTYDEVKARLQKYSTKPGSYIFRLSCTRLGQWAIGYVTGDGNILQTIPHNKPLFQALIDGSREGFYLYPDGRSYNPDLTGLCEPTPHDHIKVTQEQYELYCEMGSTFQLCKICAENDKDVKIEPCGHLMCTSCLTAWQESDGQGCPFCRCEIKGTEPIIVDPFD

As to `Cn1cnnc1[C@]1(c2cccc(NC(=O)c3cc(CNCC4CCC4)c4[nH]cc(F)c4n3)c2)C[C@H](C)C1` [Compound B36, 7-(((cyclobutylmethyl)amino)methyl)-3-fluoro-N-(3-((1s, 3s)-3-methyl-1-(4-methyl-4H-1,2,4-triazol-3-yl)cyclobutyl)phenyl)-1H-pyrrolo[3,2-b]pyridine-5-carboxamide], the IC50 on Cbl-b (aa36-427) amounted to 0.8 nM; at Cbl (aa49-434), 2.3 nM.
The like results for `C[C@H](NCc1cc(C(=O)Nc2cccc([C@]3(c4nncn4C)C[C@@H](CC#N)C3)c2)c2ncc(Cl)n2c1)C1CCCC1` [Compound A34, 3-chloro-N-(3-((1s,3R)-3-(cyanomethyl)-1-(4-methyl-4H-1,2,4-triazol-3-yl)cyclobutyl)phenyl)-6-((((S)-1-cyclopentylethyl)amino)methyl)imidazo[1,2-a]pyridine-8-carboxamide] were, in that order, 2.6 nM and 7.8 nM.
Regarding `Cn1cnnc1[C@]1(c2cccc(NC(=O)c3cc(CNC4(C)CC4)cn4ccnc34)c2)C[C@H](CC#N)C1` [Compound A25, N-(3-((1s, 3s)-3-(cyanomethyl)-1-(4-methyl-4H-1,2,4-triazol-3-yl)cyclobutyl)phenyl)-6-(((1-methylcyclopropyl)amino)methyl)imidazo[1,2-a]pyridine-8-carboxamide], the figures for the IC50 on Cbl-b (aa36-427) and on Cbl (aa49-434) were 1.5 nM and 10.5 nM, respectively.
For `CC(C)CNCc1cc(C(=O)Nc2cccc([C@]3(c4nncn4C)C[C@@H](C)C3)c2)c2ncc(F)n2c1` [Compound A62, 3-fluoro-6-((isobutylamino)methyl)-N-(3-((1s, 3s)-3-methyl-1-(4-methyl-4H-1,2,4-triazol-3-yl)cyclobutyl)phenyl)imidazo[1,2-a]pyridine-8-carboxamide] the same measures were 1.1 nM and 7 nM.
As to `Cc1cnc2c(C(=O)Nc3cncc([C@]4(c5nncn5C)C[C@@H](C)C4)c3)cc(CN[C@@H](C)C3CCC3)cn12` [Compound A63, 6-({[(1S)-1-cyclobutylethyl]amino}methyl)-3-methyl-N-{5-[(1r, 3s)-3-methyl-1-(4-methyl-1,2,4-triazol-3-yl)cyclobutyl]pyridin-3-yl}imidazo[1,2-a]pyridine-8-carboxamide], the figures for the IC50 on Cbl-b (aa36-427) and on Cbl (aa49-434) were 1.1 nM and 1.8 nM, respectively.
The like results for `Cn1cnnc1C[C@]1(c2cccc(NC(=O)c3cc(CNCC4(C)CCCC4)c4[nH]ccc4n3)c2)C[C@H](C#N)C1` [Compound B23, N-(3-((1r, 3r)-3-cyano-1-((4-methyl-4H-1,2,4-triazol-3-yl)methyl)cyclobutyl)phenyl)-7-((((1-methylcyclopentyl)methyl)amino)methyl)-1H-pyrrolo[3,2-b]pyridine-5-carboxamide] were, in that order, 3.6 nM and 8.8 nM.
In the case of `Cn1cnnc1C[C@]1(c2cccc(NC(=O)c3cc(CNC4(C)CC4)c4c(n3)C(C)(C)CN4)c2)C[C@H](C#N)C1` [Compound C44, 3,3-dimethyl-7-{[(1-methylcyclopropyl)amino]methyl}-N-{3-[(1r, 3r)-3-cyano-1-[(4-methyl-1,2,4-triazol-3-yl)methyl]cyclobutyl]phenyl}-1H,2H-pyrrolo[3,2-b]pyridine-5-carboxamide], the IC50 came out at 1.5 nM at Cbl-b (aa36-427) and 3.3 nM on Cbl (aa49-434).
With `Cn1cnnc1[C@]1(c2cccc(NC(=O)c3cc(CNC4(C)CC4)cn4c(Cl)cnc34)c2)C[C@H](C)C1` [Compound A67, 3-chloro-N-(3-((1s, 3s)-3-methyl-1-(4-methyl-4H-1,2,4-triazol-3-yl)cyclobutyl)phenyl)-6-(((1-methylcyclopropyl)amino)methyl)imidazo[1,2-a]pyridine-8-carboxamide], the IC50 on Cbl-b (aa36-427) was 0.5 nM; on Cbl (aa49-434), 2.8 nM.
The like results for `Cn1cnnc1[C@]1(c2cccc(NC(=O)c3cc(CNC4(C)CC4)cn4ncnc34)c2)C[C@H](CC#N)C1` [Compound A89, N-(3-((1s, 3s)-3-(cyanomethyl)-1-(4-methyl-4H-1,2,4-triazol-3-yl)cyclobutyl)phenyl)-6-(((1-methylcyclopropyl)amino)methyl)-[1,2,4]triazolo[1,5-a]pyridine-8-carboxamide] were, in that order, 1.7 nM and 45 nM.
Consider `C[C@H]1CCCN(Cc2cc(C(=O)Nc3cccc([C@]4(Cc5nncn5C)C[C@@H](C#N)C4)c3)nc3c2NCC3(C)C)C1` [Compound C12, 3,3-dimethyl-7-{[(3S)-3-methylpiperidin-1-yl]methyl}-N-{3-[(1r, 3r)-3-cyano-1-[(4-methyl-1,2,4-triazol-3-yl)methyl]cyclobutyl]phenyl}-1H,2H-pyrrolo[3,2-b]pyridine-5-carboxamide], for which the IC50 was determined as 1.4 nM at Cbl-b (aa36-427) and 1.3 nM at Cbl (aa49-434).
In the case of `C[C@H](NCc1cc(C(=O)Nc2cncc([C@]3(c4nncn4C)C[C@@H](C)C3)c2)nc2cc[nH]c12)C1CCC1` [Compound B43, 7-({[(1S)-1-cyclobutylethyl]amino}methyl)-N-{5-[(1r, 3s)-3-methyl-1-(4-methyl-1,2,4-triazol-3-yl)cyclobutyl]pyridin-3-yl}-1H-pyrrolo[3,2-b]pyridine-5-carboxamide], the IC50 on Cbl-b (aa36-427) and on Cbl (aa49-434) was 0.6 nM each time.
In the case of `Cn1cnnc1[C@]1(c2cncc(NC(=O)c3cc(CNCC4CCC4)cn4c(F)cnc34)c2)C[C@H](C)C1` [Compound A71, 6-{[(cyclobutylmethyl)amino]methyl}-3-fluoro-N-{5-[(1r, 3s)-3-methyl-1-(4-methyl-1,2,4-triazol-3-yl)cyclobutyl]pyridin-3-yl}imidazo[1,2-a]pyridine-8-carboxamide], the results for the IC50 at Cbl-b (aa36-427) and at Cbl (aa49-434) were 0.6 nM and 0.9 nM, respectively.
The like results for `Cn1cnnc1[C@]1(c2cccc(NC(=O)c3cc(CNCC4CCC(F)(F)CC4)c4[nH]ccc4n3)c2)C[C@H](CC#N)C1` [Compound B22, N-(3-((1s, 3s)-3-(cyanomethyl)-1-(4-methyl-4H-1,2,4-triazol-3-yl)cyclobutyl)phenyl)-7-((((4,4-difluorocyclohexyl)methyl)amino)methyl)-1H-pyrrolo[3,2-b]pyridine-5-carboxamide] were, in that order, 4 nM and 19.5 nM.
The like results for `C[C@H](NCc1cc(C(=O)Nc2cccc([C@]3(c4nncn4C)C[C@@H](C)C3)c2)nc2c1CCC2(F)F)C1CC1` [Compound C60, 4-((((S)-1-cyclopropylethyl)amino)methyl)-7,7-difluoro-N-(3-((1s,3R)-3-methyl-1-(4-methyl-4H-1,2,4-triazol-3-yl)cyclobutyl)phenyl)-6,7-dihydro-5H-cyclopenta[b]pyridine-2-carboxamide] were, in that order, 1.1 nM and 9.2 nM.
For `Cn1cnnc1[C@]1(c2cccc(NC(=O)c3cc(CNCC4(C)CCC4)c4c(n3)C(C)(C)CC4)c2)C[C@H](CC#N)C1` [Compound C37, N-(3-((1s, 3s)-3-(cyanomethyl)-1-(4-methyl-4H-1,2,4-triazol-3-yl)cyclobutyl)phenyl)-7,7-dimethyl-4-((((1-methylcyclobutyl)methyl)amino)methyl)-6,7-dihydro-5H-cyclopenta[b]pyridine-2-carboxamide] the same measures were 0.9 nM and 2.4 nM.
As to `Cc1cnc2c(C(=O)Nc3cccc([C@]4(c5nncn5C)C[C@@H](C)C4)c3)cc(CN[C@@H](C)C3CCC3)cn12` [Compound A60, 6-((((S)-1-cyclobutylethyl)amino)methyl)-3-methyl-N-(3-((1s,3R)-3-methyl-1-(4-methyl-4H-1,2,4-triazol-3-yl)cyclobutyl)phenyl)imidazo[1,2-a]pyridine-8-carboxamide], the IC50 on Cbl-b (aa36-427) amounted to 0.5 nM; on Cbl (aa49-434), 1.1 nM.
Regarding `Cn1cnnc1[C@]1(c2cccc(NC(=O)c3cc(CN[C@H]4C[C@@H](C)C4)c4[nH]ccc4n3)c2)C[C@H](C)C1` [Compound B33, N-(3-((1s, 3s)-3-methyl-1-(4-methyl-4H-1,2,4-triazol-3-yl)cyclobutyl)phenyl)-7-((((1s, 3s)-3-methylcyclobutyl)amino)methyl)-1H-pyrrolo[3,2-b]pyridine-5-carboxamide], the values for the IC50 on Cbl-b (aa36-427) and on Cbl (aa49-434) were 0.9 nM and 4.7 nM, respectively.
Consider `[2H]C([2H])([2H])n1cnnc1[C@]1(c2cccc(NC(=O)c3cc(CNC4(C)CC4)cn4ccnc34)c2)C[C@H](C)C1` [Compound A95, N-(3-((1s, 3s)-3-methyl-1-(4-(methyl-d3)-4H-1,2,4-triazol-3-yl)cyclobutyl)phenyl)-6-(((1-methylcyclopropyl)amino)methyl)imidazo[1,2-a]pyridine-8-carboxamide], for which the IC50 on Cbl-b (aa36-427) was found to be 0.7 nM; at Cbl (aa49-434), 3.4 nM.
With `Cn1cnnc1[C@]1(c2cccc(NC(=O)c3cc(CNCC4CCC4)c4c(n3)C(C)(C)CN4)c2)C[C@H](C)C1` [Compound C49, 7-(((cyclobutylmethyl)amino)methyl)-3,3-dimethyl-N-(3-((1s, 3s)-3-methyl-1-(4-methyl-4H-1,2,4-triazol-3-yl)cyclobutyl)phenyl)-2,3-dihydro-1H-pyrrolo[3,2-b]pyridine-5-carboxamide], the IC50 at Cbl-b (aa36-427) worked out at 2 nM; on Cbl (aa49-434), 5.9 nM.
